Source: patent EP0671410A1, “Antiviral compounds” (priority 1989, dated 1991)
pIC50: −log10 of the molar value.

How the values were obtained:
[1] = test system: Influenza A and B strains; assay: microbe, parasite or virus in culture; assay type: cell-based; details: in Gallus gallus, read-out: Anti-influenza Activity CE cells IC50,µM
[2] = test system: Influenza A and B strains; design: species or system Mice; details: in vivo
[3] = test system: Respiratory Syncytial Virus (RSV); assay: microbe, parasite or virus in culture; assay type: cell-based; details: human respiratory syncytial virus, BSC-1; BS-C-1 cells (African Green Monkey kidney cells); plaque/foci reduction; read-out: Anti-respiratory syncytial virus BS-C-1 cells IC₅₀

For `Nc1nc(N)c2ncn([C@@H]3O[C@H](CO)[C@@H](O)[C@H]3F)c2n1` [Example 6, 2,6-Diamino-9-(2-deoxy-2-fluoro-β-D-ribofuranosyl)-9H-purine], the IC50 [1] was 0.6 µM and the “Anti-influenza Activity Mouse log10 reduction in virus titre. (Average of 5 Mice)” value [2] was “+(2.1) log10”.
In the case of `Nc1nc2c(ncn2[C@@H]2O[C@H](CO)[C@@H](O)[C@H]2F)c(=O)[nH]1` [Example 7, 9-(2-Deoxy-2-fluoro-β-D-ribofuranosyl)guanine], the pIC50 [3] was 4.58, the IC50 [1] was 0.8 to 2 µM and the “Anti-influenza Activity Mouse log10 reduction in virus titre. (Average of 5 Mice)” value [2] was “+(2.4) log10”.
For `Nc1ncnc2c1ncn2[C@@H]1O[C@H](CO)[C@@H](O)[C@H]1F` [Example 8, 9-(2-Deoxy-2-fluoro-β-D-ribofuranosyl)adenine], the IC50 [1] was 4 µM and the “Anti-influenza Activity Mouse log10 reduction in virus titre. (Average of 5 Mice)” value [2] was “+(2.3) log10”.
With `Nc1ncc2ncn([C@@H]3O[C@H](CO)[C@@H](O)[C@H]3F)c2n1` [Example 9, 2-Amino-9-(2-deoxy-2-fluoro-β-D-ribofuranosyl)-9H-purine] the “Anti-influenza Activity Mouse log10 reduction in virus titre. (Average of 5 Mice)” value [2] was “+(1.6) log10”.
For `COc1nc(N)nc2c1ncn2[C@@H]1O[C@H](CO)[C@@H](O)[C@H]1F` [Example 12, 2-Amino-9-(2-deoxy-2-fluoro-β-D-ribofuranosyl)-6-methoxy-9H-purine], the pIC50 [3] was 5.20, the IC50 [1] was 0.4 µM and the “Anti-influenza Activity Mouse log10 reduction in virus titre. (Average of 5 Mice)” value [2] was “+(1.9) log10”.
